Data taken from ChEMBL document CHEMBL5715936, “Selective Itk inhibitors block T-cell activation and murine lung inflammation” (Biochemistry, 2004).
Calls of active or inactive are those of the source. No cut-off for these calls is given here.

Key:
Mus musculus = experiment: In vivo inhibition of IL-2 production in Balb/c mouse serum administered for 15 mins in presence of anti-CD3 antibody by ELISA analysis; assay type: functional, organism-based; details: dose 50-100 mg/kg, route sc
[1] = molecular target: Tyrosine-protein kinase Lck (Homo sapiens, UniProt P06239); experiment: Inhibition of Lck (unknown origin) using GST-SLP-76 as peptide substrate incubated for 10 mins in presence of [gamma-33P]ATP by scintillation counter assay
Chain of Tyrosine-protein kinase Lck (P06239 whole entry): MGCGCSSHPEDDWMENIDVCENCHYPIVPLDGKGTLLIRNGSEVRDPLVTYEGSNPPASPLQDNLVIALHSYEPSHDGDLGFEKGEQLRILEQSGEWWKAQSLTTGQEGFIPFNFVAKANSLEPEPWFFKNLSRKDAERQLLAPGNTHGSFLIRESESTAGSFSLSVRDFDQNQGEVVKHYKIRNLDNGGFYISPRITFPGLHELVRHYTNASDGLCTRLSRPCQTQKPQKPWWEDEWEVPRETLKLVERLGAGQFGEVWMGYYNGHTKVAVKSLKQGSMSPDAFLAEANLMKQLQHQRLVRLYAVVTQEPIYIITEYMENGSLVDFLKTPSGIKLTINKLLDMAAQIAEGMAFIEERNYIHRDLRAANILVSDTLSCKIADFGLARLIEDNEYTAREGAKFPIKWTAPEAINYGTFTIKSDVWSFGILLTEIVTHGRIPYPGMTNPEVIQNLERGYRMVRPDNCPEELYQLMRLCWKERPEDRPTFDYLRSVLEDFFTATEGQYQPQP

[2] = molecular target: cAMP-dependent protein kinase (PKA) (Homo sapiens, UniProt P22694+P17612+P22612); experiment: Inhibition of PKA (unknown origin) using GST-SLP-76 as peptide substrate incubated for 10 mins in presence of [gamma-33P]ATP by scintillation counter assay; assay type: protein assay
[3] = Inhibition of CaMKII (unknown origin) using GST-SLP-76 as peptide substrate incubated for 10 mins in presence of [gamma-33P]ATP by scintillation counter assay; design: species or system Homo sapiens
[4] = molecular target: Tyrosine-protein kinase Fyn (Homo sapiens, UniProt P06241); experiment: Inhibition of Fyn (unknown origin) using GST-SLP-76 as peptide substrate incubated for 10 mins in presence of [gamma-33P]ATP by scintillation counter assay
Chain of Tyrosine-protein kinase Fyn (P06241 whole entry): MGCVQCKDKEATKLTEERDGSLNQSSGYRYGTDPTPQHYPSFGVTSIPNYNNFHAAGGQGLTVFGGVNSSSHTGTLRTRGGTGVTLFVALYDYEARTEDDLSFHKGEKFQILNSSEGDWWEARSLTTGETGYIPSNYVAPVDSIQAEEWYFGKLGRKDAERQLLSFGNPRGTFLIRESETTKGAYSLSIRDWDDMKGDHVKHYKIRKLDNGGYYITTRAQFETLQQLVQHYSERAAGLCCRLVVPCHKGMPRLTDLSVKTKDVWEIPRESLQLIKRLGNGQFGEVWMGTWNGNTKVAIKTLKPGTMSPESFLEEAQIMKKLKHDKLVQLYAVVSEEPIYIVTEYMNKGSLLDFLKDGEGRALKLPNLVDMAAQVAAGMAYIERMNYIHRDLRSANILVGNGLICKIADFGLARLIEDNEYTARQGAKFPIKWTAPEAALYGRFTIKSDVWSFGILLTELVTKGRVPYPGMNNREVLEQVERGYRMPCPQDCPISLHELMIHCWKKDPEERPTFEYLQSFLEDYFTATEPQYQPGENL

[5] = molecular target: T1, Tyrosine-protein kinase ITK/TSK (Homo sapiens) (UniProt Q08881); experiment: Inhibition of Itk in human Jurkat T cells assessed as inhibition of IL-2 secretion incubated for 16 hrs in presence of anti-CD3 antibody G19-4 by ELISA analysis; assay type: cell-based
T1 sequence (whole entry): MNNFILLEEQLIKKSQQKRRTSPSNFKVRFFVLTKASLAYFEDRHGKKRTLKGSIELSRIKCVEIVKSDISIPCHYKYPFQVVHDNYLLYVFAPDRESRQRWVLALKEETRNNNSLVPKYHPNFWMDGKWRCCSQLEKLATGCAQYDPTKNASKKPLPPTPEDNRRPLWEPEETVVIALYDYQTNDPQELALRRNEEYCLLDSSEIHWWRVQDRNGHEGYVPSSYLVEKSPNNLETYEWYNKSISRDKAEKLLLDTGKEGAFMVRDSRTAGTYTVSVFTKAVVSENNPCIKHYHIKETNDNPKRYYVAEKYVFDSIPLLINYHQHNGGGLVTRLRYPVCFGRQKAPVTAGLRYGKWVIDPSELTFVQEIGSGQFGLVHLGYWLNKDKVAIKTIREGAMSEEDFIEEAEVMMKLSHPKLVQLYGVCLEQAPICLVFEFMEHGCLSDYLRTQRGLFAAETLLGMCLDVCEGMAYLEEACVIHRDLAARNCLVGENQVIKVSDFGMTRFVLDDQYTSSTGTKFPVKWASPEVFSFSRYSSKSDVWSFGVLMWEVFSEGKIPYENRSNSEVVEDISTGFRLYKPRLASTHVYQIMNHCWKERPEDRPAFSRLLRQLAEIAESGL

[6] = molecular target: Tyrosine-protein kinase ITK/TSK (Mus musculus) (UniProt Q03526); experiment: (§1) Inhibition of Itk in mouse EL4 cells assessed as inhibition of IL-2 secretion incubated for 16 hrs in presence of anti-CD3 antibody G19-4 by ELISA analysis; assay type: cell-based
Chain of Tyrosine-protein kinase ITK/TSK (Mus musculus) (Q03526 whole entry): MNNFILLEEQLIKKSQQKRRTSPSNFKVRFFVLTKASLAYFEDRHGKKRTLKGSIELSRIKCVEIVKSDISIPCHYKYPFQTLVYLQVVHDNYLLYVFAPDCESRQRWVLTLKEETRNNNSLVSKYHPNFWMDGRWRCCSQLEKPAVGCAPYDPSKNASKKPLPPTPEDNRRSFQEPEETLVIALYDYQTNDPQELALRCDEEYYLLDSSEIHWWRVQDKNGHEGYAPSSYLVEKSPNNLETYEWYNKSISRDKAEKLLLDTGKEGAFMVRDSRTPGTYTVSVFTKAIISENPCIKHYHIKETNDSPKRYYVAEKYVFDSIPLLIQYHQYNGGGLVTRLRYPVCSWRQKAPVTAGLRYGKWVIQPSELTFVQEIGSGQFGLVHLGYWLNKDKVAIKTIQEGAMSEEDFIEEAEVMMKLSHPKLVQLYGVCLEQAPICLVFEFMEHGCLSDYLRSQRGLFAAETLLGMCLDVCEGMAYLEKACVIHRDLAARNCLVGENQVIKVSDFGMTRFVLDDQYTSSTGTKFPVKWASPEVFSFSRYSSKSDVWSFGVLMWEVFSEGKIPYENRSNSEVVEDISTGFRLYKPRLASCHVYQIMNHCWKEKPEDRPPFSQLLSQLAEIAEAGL

[7] = molecular target: Tyrosine-protein kinase ITK/TSK (Mus musculus, UniProt Q03526); experiment: as §1; assay type: cell-based
Chain of Tyrosine-protein kinase ITK/TSK (Q03526 whole entry): as above

[8] = molecular target: Epidermal growth factor receptor (Homo sapiens, UniProt P00533); experiment: Inhibition of EGFR (unknown origin) using GST-SLP-76 as peptide substrate incubated for 10 mins in presence of [gamma-33P]ATP by scintillation counter assay
Chain of Epidermal growth factor receptor (P00533 whole entry): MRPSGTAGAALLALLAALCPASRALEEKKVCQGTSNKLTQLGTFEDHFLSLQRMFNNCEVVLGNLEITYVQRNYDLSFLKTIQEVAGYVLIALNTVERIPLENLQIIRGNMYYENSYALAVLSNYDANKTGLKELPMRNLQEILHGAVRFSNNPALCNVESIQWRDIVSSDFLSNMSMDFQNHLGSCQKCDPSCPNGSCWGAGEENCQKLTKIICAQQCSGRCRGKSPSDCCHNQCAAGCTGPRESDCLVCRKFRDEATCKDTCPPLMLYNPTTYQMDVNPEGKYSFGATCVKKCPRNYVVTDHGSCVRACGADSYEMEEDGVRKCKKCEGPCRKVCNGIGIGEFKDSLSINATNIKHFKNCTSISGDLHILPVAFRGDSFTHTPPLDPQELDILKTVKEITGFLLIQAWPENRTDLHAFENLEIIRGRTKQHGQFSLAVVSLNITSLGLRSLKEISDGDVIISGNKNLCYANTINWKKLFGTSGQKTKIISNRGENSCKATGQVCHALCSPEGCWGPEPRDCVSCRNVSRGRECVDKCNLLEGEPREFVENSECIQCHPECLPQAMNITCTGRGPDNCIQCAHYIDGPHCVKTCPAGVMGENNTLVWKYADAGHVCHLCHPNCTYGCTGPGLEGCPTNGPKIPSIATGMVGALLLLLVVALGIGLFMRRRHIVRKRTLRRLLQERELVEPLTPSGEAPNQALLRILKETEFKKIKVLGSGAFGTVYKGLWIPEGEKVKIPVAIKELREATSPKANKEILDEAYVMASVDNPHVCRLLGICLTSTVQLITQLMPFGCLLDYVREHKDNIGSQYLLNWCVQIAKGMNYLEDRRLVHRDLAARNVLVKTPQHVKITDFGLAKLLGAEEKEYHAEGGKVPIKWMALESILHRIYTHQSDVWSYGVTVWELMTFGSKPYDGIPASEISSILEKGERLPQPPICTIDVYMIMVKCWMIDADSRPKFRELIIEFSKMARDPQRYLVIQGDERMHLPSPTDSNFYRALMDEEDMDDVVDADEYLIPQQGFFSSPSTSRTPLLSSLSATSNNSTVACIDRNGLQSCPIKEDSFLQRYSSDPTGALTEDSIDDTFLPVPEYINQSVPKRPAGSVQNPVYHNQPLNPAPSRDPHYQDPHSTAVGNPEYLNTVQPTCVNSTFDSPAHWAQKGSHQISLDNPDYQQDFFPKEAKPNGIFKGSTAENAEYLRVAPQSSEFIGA

[9] = molecular target: T2, Tyrosine-protein kinase ZAP-70 (Homo sapiens, UniProt P43403); experiment: Inhibition of ZAP-70 (unknown origin) using GST-SLP-76 as peptide substrate incubated for 10 mins in presence of [gamma-33P]ATP by scintillation counter assay
T2 sequence (P43403 whole entry): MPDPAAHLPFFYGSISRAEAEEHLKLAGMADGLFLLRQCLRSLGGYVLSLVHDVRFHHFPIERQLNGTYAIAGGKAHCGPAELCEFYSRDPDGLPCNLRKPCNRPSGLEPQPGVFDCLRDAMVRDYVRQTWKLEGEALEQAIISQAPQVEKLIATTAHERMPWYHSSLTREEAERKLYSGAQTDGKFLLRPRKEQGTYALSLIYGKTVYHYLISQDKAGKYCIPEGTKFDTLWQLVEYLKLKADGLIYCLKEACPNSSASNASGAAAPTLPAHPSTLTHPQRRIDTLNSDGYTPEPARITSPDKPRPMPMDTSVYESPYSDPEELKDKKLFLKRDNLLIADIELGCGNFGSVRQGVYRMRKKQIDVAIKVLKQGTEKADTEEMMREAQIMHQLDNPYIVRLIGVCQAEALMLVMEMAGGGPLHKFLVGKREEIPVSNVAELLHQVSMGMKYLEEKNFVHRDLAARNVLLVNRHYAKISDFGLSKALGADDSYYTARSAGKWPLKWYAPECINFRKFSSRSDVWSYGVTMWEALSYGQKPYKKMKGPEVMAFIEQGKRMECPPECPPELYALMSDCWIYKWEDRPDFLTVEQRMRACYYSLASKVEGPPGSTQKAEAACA

[10] = molecular target: T3, Tyrosine-protein kinase Tec (Homo sapiens, UniProt P42680); experiment: Inhibition of Tec (unknown origin) using GST-SLP-76 as peptide substrate incubated for 10 mins in presence of [gamma-33P]ATP by scintillation counter assay
T3 sequence (P42680 whole entry): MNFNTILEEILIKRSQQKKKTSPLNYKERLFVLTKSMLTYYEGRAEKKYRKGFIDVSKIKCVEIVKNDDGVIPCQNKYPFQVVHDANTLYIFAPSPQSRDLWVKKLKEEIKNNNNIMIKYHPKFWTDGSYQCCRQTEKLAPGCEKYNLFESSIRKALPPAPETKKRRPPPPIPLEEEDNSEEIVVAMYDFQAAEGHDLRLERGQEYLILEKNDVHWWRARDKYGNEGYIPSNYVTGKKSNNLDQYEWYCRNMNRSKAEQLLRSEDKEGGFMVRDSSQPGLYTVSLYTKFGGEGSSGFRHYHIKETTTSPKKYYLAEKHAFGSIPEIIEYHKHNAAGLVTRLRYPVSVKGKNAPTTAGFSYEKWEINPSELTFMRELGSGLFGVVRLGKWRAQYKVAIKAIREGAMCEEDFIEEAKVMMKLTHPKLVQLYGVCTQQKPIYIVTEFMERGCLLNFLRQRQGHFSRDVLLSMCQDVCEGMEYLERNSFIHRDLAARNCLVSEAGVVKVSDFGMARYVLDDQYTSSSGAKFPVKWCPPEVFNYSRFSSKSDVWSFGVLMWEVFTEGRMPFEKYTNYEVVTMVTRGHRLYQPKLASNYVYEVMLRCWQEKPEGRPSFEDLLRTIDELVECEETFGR

[11] = molecular target: T1, Tyrosine-protein kinase ITK/TSK (Homo sapiens); experiment: Inhibition of Itk in human PBMC cells assessed as inhibition of IL-2 secretion incubated for 16 hrs in presence of anti-CD3 antibody G19-4 by ELISA analysis; assay type: cell-based
[12] = molecular target: T1, Tyrosine-protein kinase ITK/TSK (Homo sapiens); experiment: Inhibition of Itk in EGF-stimulated human A549 cells assessed as reduction in tyrosine phosphorylation at <=10 uM incubated for 20 mins by Western blotting analysis; assay type: cell-based

Row | IC50 [1] [µM] | IC50 [2] [µM] | IC50 [4] [µM] | inhibition [5] | inhibition [6] | IC50 [7] [µM] | IC50 [8] [µM] | IC50 [9] [µM] | IC50 [10] [µM] | inhibition [11] | inhibition [12] | SMILES | inhibition (Mus musculus) | IC50 [3] [µM]
1 | 27 | > 50 | 8.6 | Dose-Dependent Effect | Dose-Dependent Effect | 0.25 | > 50 | > 50 | > 50 | Dose-Dependent Effect | Active | CC(=O)N1CCN(C(=O)c2cc(CSc3cnc(NC(=O)c4ccc(CNC(C)C(C)(C)C)cc4)s3)cc(C)c2C)CC1 (stereo not given) | Dose-Dependent Effect | > 50
2 | 2.4 | > 50 | 1.1 | – | – | – | – | > 50 | 17 | – | Active | COc1cc(C)c(Sc2cnc(NC(=O)c3ccc(CNC(C)C(C)(C)C)cc3)s2)cc1C(=O)N1CCN(C(C)=O)CC1 (stereo not given) | – | 33.5
